These compounds were tested against MetAP-2 (Homo sapiens, UniProt P50579) (assay: MetAP-2 activity measurement (coupled enzymatic reactions, substrate Met-Arg-Ser, photometric at 450 nm)). Conditions: read-out: IC50 enzyme (Inhibition of MetAP-2).
Assay type: biochemical
Experimental: MetAP-2 Activity Measurement
The MetAP-2 activity is determined by coupling enzymatic reactions. The tripeptide Met-Arg-Ser (MAS) is employed as substrate. The methionine liberated is firstly converted into Metox and H2O2 by L-aminooxidase (AAO). In the second step, the peroxidase (POD) with the aid of the H2O2 catalyses the oxidation of the leukodye dianisidine to dianisidineox, the increase of which is detected photometrically at 450 nm.
MetAP-2 activity can be recorded continuously as kinetics. The reaction scheme illustrates that one mol of dianisidineox is formed per mol of methionene. The MetAP-2 enzyme activity can therefore be calculated directly as Δ absorption per time unit. […] of the MetAP-2 activity (mol of Met/time unit) is possible with the aid of the dianisidineox extinction coefficient.
The change in extinction per time unit is depicted graphically and a slope calculation is carried out in the visually linear region of the reaction.

Chain of MetAP-2 (P50579 whole entry, species assumed): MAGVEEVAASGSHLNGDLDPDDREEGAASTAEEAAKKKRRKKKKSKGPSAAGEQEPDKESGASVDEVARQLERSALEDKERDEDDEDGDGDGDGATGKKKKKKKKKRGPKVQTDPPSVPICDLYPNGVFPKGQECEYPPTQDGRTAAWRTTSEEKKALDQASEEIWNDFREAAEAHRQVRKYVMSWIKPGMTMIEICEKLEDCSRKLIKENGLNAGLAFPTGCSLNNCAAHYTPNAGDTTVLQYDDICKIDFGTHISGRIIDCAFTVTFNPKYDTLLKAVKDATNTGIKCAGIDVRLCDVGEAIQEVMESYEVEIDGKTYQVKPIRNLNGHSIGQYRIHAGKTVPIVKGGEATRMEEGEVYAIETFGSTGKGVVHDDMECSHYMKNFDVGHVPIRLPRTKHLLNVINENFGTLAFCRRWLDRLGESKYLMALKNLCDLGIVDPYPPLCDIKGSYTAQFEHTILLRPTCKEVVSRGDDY

SMILES | IC50
O=CN(CCN1CCOCC1)Cc1ccc(OC[C@H]2CCCN2c2ncnc3[nH]cnc23)c2ccccc12 [A94, N-(2-Morpholin-4-ylethyl)-N-{4-[(R)-1-(9H-purin-6-yl)pyrrolidin-2-ylmethoxy]naphthalen-1-yl-methyl}formamide] | 0.01 to 1 µM
c1ccc2c(OC[C@H]3CCCN3c3ncnc4[nH]cnc34)ccc(CNCCCN3CCOCC3)c2c1 [A95, (3-Morpholin-4-ylpropyl)-{4-[(R)-1-(9H-purin-6-yl)pyrrolidin-2-ylmethoxy]naphthalen-1-yl-methyl}amine] | 0.01 to 1 µM
O=C1c2cccc(OC[C@H]3CCCN3c3ncnc4[nH]cnc34)c2CC[C@@H]1Cc1c[nH]cn1 [A96, (R)-2-(1H-Imidazol-4-ylmethyl)-5-[(R)-1-(9H-purin-6-yl)pyrrolidin-ylmethoxy]-3,4-dihydro-2H-naphthalen-1-one] | 0.01 to 1 µM
O=C1c2cccc(OC[C@H]3CCCN3c3ncnc4[nH]cnc34)c2CC[C@H]1Cc1c[nH]cn1 [A97, (S)-2-(1H-Imidazol-4-y!methyl)-5-[(R)-1-(9H-purin-6-yl)pyrrolidin-2-ylmethoxy]-3,4-dihydro-2H-naphthalen-1-one] | 0.01 to 1 µM
CC(=O)N(CCN1CCCCC1)Cc1ccc(OC[C@H]2CCCN2c2ncnc3[nH]cnc23)c2ccccc12 [A98, N-(2-Piperidin-1-ylethyl)-N-{4-[(R)-1-(9H-purin-6-yl)pyrrolidin-2-ylmethoxy]naphthalen-1-yl-methyl]acetamide] | 0.01 to 1 µM
CC(=O)N(Cc1ccn(C)n1)Cc1ccc(OC[C@H]2CCCN2c2ncnc3[nH]cnc23)c2ccccc12 [A99, N-(1-Methyl-1H-pyrazol-3-ylmethyl)-N-{4-[(R)-1-(9H-purin-6-yl)pyrrolidin-2-ylmethoxy]-naphthalen-1-ylmethyl}acetamide] | 0.01 to 1 µM
CC(=O)N(Cc1ccc(OC[C@H]2CCCN2c2ncnc3[nH]cnc23)c2ccccc12)CC(O)CO (stereo partly drawn) [A100, N-(2,3-Dihydroxypropyl)-N-{4-[(R)-1-(9H-purin-6-yl)pyrrolidin-2-ylmethoxy]naphthalen-1-yl-methyl}acetamide] | 0.01 to 1 µM
O=CN(CCN1CCCCC1)Cc1ccc(OC[C@H]2CCCN2c2ncnc3[nH]cnc23)c2ccccc12 [A101, N-(2-Piperidin-1-ylethyl)-N-{4-[(R)-1-(9H-purin-6-yl)pyrrolidin-2-ylmethoxy]naphthalen-1-yl-methyl}formamide] | 0.01 to 1 µM
Cn1ccc(CN(C=O)Cc2ccc(OC[C@H]3CCCN3c3ncnc4[nH]cnc34)c3ccccc23)n1 [A102, N-(1-Methyl-1H-pyrazol-3-ylmethyl)-N-{4-[(R)-1-(9H-purin-6-yl)pyrrolidin-2-ylmethoxy]-naphthalen-1-ylmethyl}formamide] | 0.01 to 1 µM
c1ccc(-c2nc3ccccc3s2)c(OC[C@H]2CCCN2c2ncnc3[nH]cnc23)c1 [A103, 6-[(R)-2-(2-Benzothiazol-2-ylphenoxymethyl)-pyrrolidin-1-yl]-9H-purine] | 1 to 10 µM
c1cc(OC[C@H]2CCCN2c2ncnc3[nH]cnc23)c2nccn2c1 [A104, 6-[(R)-2-(Imidazo[1,2-a]pyridin-8-yloxymethyl)-pyrrolidin-1-yl]-9H-purine] | 1 to 10 µM
FC(F)(F)c1cc(OC[C@H]2CCCN2c2ncnc3[nH]cnc23)c2cc(Cl)ccc2n1 [A105, 6-Chloro-4-[(R)-1-(9H-purin-6-yl)pyrrolidin-2-yl-methoxy]-2-trifluoromethylquinoline] | 0.01 to 1 µM
c1ccc(CN2CCN(c3ccc4cccc(OC[C@H]5CCCN5c5ncnc6[nH]cnc56)c4c3)CC2)cc1 [A106, 6-{(R)-2-[7-(4-Benzylpiperazin-1-yl)naphthalen-1-yloxymethyl]pyrrolidin-1-yI}-9H-purine] | > 10 µM
CN(C)c1ccc2cc(S(=O)(=O)O)cc(OC[C@H]3CCCN3c3ncnc4[nH]cnc34)c2c1 [A107, 6-Dimethylamino-4-[(R)-1-(9H-purin-6-yl)-pyrrolidin-2-ylmethoxy]naphthalene-2-sulfonic acid] | 1 to 10 µM
c1ccc2c(NC[C@H]3CCCN3c3ncnc4[nH]cnc34)cccc2c1 [A108, Naphthalen-1-yl[(R)-1-(9H-purin-6-yl)pyrrolidin-2-ylmethyl]amine] | > 10 µM
c1ccc2c(OC[C@H]3CCCN3c3ncnc4[nH]cnc34)nccc2c1 [A109, 1-[(R)-1-(9H-Purin-6-yl)pyrrolidin-2-yl-methoxy]isoquinoline] | 0.01 to 1 µM
CCCN1CCN(Cc2ccc(OC[C@H]3CCCN3c3ncnc4[nH]cnc34)c3ccccc23)CC1 [A110, 6-{(R)-2-[4-(4-Propylpiperazin-1-ylmethyl)-naphthalen-1-yloxymethyl]pyrrolidin-1-yl}-9H-purine] | 0.01 to 1 µM
CC(=O)N1CCN(Cc2ccc(OC[C@H]3CCCN3c3ncnc4[nH]cnc34)c3ccccc23)CC1 [A111, 1-(4-{4-[(R)-1-(9H-Purin-6-yl)pyrrolidin-2-yl-methoxy]naphthalen-1-ylmethyl}piperazin-1-yl)-ethanone] | 0.01 to 1 µM

SMILES | IC50
c1ccc2c(OC[C@H]3CCCN3c3ncnc4[nH]cnc34)ccc(CN3CCN(C4CCCC4)CC3)c2c1 [A112, 6-{(R)-2-[4-(4-Cyclopentylpiperazin-1-yl-methyl)naphthalen-1-yloxymethyl]pyrrolidin-1-yl}-9H-purine] | 0.01 to 1 µM
COCCN1CCN(Cc2ccc(OC[C@H]3CCCN3c3ncnc4[nH]cnc34)c3ccccc23)CC1 [A113, 6-((R)-2-{4-[4-(2-Methoxyethyl)piperazin-1-yl-methyl]naphthalen-1-yloxymethyl}pyrrolidin-1-yl)-9H-purine] | 0.01 to 1 µM
OC[C@H]1CCCN1Cc1ccc(OC[C@H]2CCCN2c2ncnc3[nH]cnc23)c2ccccc12 [A114, ((R)-1-{4-[(R)-1-(9H-Purin-6-yl)pyrrolidin-2-yl-methoxy]naphthalen-1-ylmethyl}pyrrolidin-2-yl)-methanol] | 0.01 to 1 µM
c1cc(OC[C@H]2CCCN2c2ncnc3[nH]cnc23)c2cc(N3CCNCC3)ccc2c1 [A115, 6-[(R)-2-(7-Piperazin-1-ylnaphthalen-1-yl-oxymethyl)pyrrolidin-1-yl]-9H-purine] | 0.01 to 1 µM
CC(=O)N1CCN(c2ccc3cccc(OC[C@H]4CCCN4c4ncnc5[nH]cnc45)c3c2)CC1 [A116, 1-(4-{8-[(R)-1-(9H-Purin-6-yl)pyrrolidin-2-yl-methoxy]naphthalen-2-yl}piperazin-1-yl)-ethanone] | 0.01 to 1 µM
Cc1ccc2nc(C(F)(F)F)cc(OC[C@H]3CCCN3c3ncnc4[nH]cnc34)c2c1 [A117, 6-Methyl-4-[(R)-1-(9H-purin-6-yl)pyrrolidin-2-yl-methoxy]-2-trifluoromethylquinoline] | 0.01 to 1 µM
COc1ccc2cccc(OC[C@H]3CCCN3c3ncnc4[nH]cnc34)c2c1 [A118, 6-[(R)-2-(7-Methoxynaphthalen-1-yloxymethyl)-pyrrolidin-1-yl]-9H-purine] | 0.01 to 1 µM
CCCCOC1=Cc2c(cccc2OC[C@H]2CCCN2c2ncnc3[nH]cnc23)CC1 [A119, 6-[(R)-2-(7-Butoxy-5,6-dihydronaphthalen-1-yl-oxymethyl)pyrrolidin-1-yl]-9H-purine] | 1 to 10 µM
O=C(OCc1ccccc1)N1CCc2cccc(OC[C@H]3CCCN3c3ncnc4[nH]cnc34)c2C1 [A120, Benzyl 8-[(R)-1-(9H-purin-6-yl)pyrrolidin-2-yl-methoxy]-3,4-dihydro-1H-isoquinoline-2-carboxylate] | 1 to 10 µM
O=C1CCc2cccc(OC[C@H]3CCCN3c3ncnc4[nH]cnc34)c2C1 [A121, 8-[(R)-1-(9H-Purin-6-yl)pyrrolidin-2-ylmethoxy]-3,4-dihydro-1H-naphthalen-2-one] | 1 to 10 µM
c1cc2c(c(OC[C@H]3CCCN3c3ncnc4[nH]cnc34)c1)CNCC2 [A122, 8-[(R)-1-(9H-Purin-6-yl)pyrrolidin-2-ylmethoxy]-1,2,3,4-tetrahydroisoquinoline] | 0.01 to 1 µM
FC(F)(F)c1ccc2nccc(OC[C@H]3CCCN3c3ncnc4[nH]cnc34)c2c1 [A123, 4-[(R)-1-(9H-Purin-6-yl)pyrrolidin-2-ylmethoxy]-6-trifluoromethylquinoline] | 0.01 to 1 µM
Oc1ccc2cccc(OC[C@H]3CCCN3c3ncnc4[nH]cnc34)c2c1 [A124, 8-[(R)-1-(9H-Purin-6-yl)pyrrolidin-2-yl-methoxy]naphthalen-2-ol] | 1 to 10 µM
Cn1ncc(Cl)c1C[C@@H]1CCc2c(OC[C@H]3CCCN3c3ncnc4[nH]cnc34)cccc2C1=O [A125, (S)-2-(4-Chloro-2-methyl-2H-pyrazol-3-yl-methyl)-5-[(R)-1-(9H-purin-6-yl)pyrrolidin-2-yl-methoxy]-3,4-dihydro-2H-naphthalen-1-one] | 0.01 to 1 µM
Cn1ncc(Cl)c1C[C@H]1CCc2c(OC[C@H]3CCCN3c3ncnc4[nH]cnc34)cccc2C1=O [A126, (R)-2-(4-Chloro-2-methyl-2H-pyrazol-3-yl-methyl)-5-[(R)-1-(9H-purin-6-yl)pyrrolidin-2-yl-methoxy]-3,4-dihydro-2H-naphthalen-1-one] | 0.01 to 1 µM
CCN(CC)C(=O)c1cc2cccc(OC[C@H]3CCCN3c3ncnc4[nH]cnc34)c2cc1O [A127, N,N-Diethyl-3-hydroxy-5-[(R)-1-(9H-purin-6-yl)-pyrrolidin-2-ylmethoxy]naphthalene-2-carboxamide] | 0.01 to 1 µM
N#CCCN1CCN(Cc2ccc(OC[C@H]3CCCN3c3ncnc4[nH]cnc34)c3ccccc23)CC1 [A128, 3-(4-{4-[(R)-1-(9H-Purin-6-yl)pyrrolidin-2-yl-methoxy]naphthalen-1-ylmethyl}piperazin-1-yl)-propionitrile] | 0.01 to 1 µM
O=C1c2cccc(OC[C@H]3CCCN3c3ncnc4[nH]cnc34)c2CC[C@@H]1Cc1cc[nH]n1 [A129, (R)-5-[(R)-1-(9H-Purin-6-yl)pyrrolidin-2-yl-methoxy]-2-(1H-pyrazol-3-ylmethyl)-3,4-dihydro-2H-naphthalen-1-one] | 0.01 to 1 µM

From patent US8846694B2, “Pyrrolidone derivatives for use as MetAP-2 inhibitors” (Merck Patent GmbH, priority 2008, dated 2014)
